Assay results published in US20110039834A1, “NOVEL PHARMACEUTICAL COMPOSITIONS FOR OPTIMIZING SUBSTITUTION TREATMENTS AND EXTENDING THE PHARMACOPOEIA TO GLOBAL TREATMENT OF ADDICTIONS” (TRIMARAN LIMITED, priority 2006, published 2011).

Key:
male mice of OF1 strain [1] = test: Behavioral sensitization to morphine (locomotor activity on D15 after morphine injection); type: in vivo
Protocol: The locomotor activity is influenced by a wide diversity of factors.
The experimental protocol used may be described in the following manner:
Dose of amisulpride (AMS): 0.5 mg/kg Dose of buprenorphine (Bup): 0.1 mg/kg
The animals received from D1 to D7 either morphine or physiological saline, from Day D8 to D14 either physiological saline, or buprenorphine, amisulpride, buprenorphine and amisulpride according to the scheme:

male mice of OF1 strain [2] = test: Measurement of locomotor activity: determination of the doses of amisulpride; type: in vivo
Protocol: The animals used in this study are male mice of OF1 strain weighing about 20 g at the start of the experiments (Charles River, France). They live in an environment whose daily lighting cycle (07:30h; 17:30h) is constant throughout the year, and the temperature is maintained at about 22° C. The mice have free access to water and food, and the experiments are performed in accordance with the international rules on ethics in animal experimentation.
The mice are placed individually in a sound-insulated plastic cage ([…]) and are exposed to a light intensity of 5 lux. The animals' movements are captured by photoelectric cells for 60 minutes and recorded by computer. The experiment starts immediately after injection of the product. In this study, the term “locomotor activity” takes into account only the horizontal movements of the animals.
A one-factor (treatment) analysis of variance (ANOVA) is used for all the behavioral tests performed, followed by a Student-Newman-Keuls test if p<0.05 in the ANOVA. In all the cases, the significance is accepted once p<0.05.
A molecule endowed with dopaminergic antagonist activity reduces locomotor activity. It is this property that is exploited in order to determine the dose after which amisulpride has dopaminergic antagonist activity in mice (i.e. an effect on the D2 and D3 post-synaptic receptors, and not on the D2 and D3 auto-receptors). […]

| SMILES | behavioral sensitization on D15 relative to animals chronically treated with saline (male mice of OF1 strain [1]; mice chronically treated D1 to D7, locomotor activity on D15 after morphine 10 mg/kg) | effect on locomotor activity at low dose (male mice of OF1 strain [2]; 0.5 mg/kg) | dose at and above which the decrease in locomotor activity is significant (male mice of OF1 strain [2]; doses tested 0.5, 2, 10, 20 and 50 mg/kg, horizontal movements over 60 minutes) [mg/kg] | reduction of the behavioral sensitization to morphine (male mice of OF1 strain [1]; morphine D1 to D7, treatment between D8 and D14 (amisulpride 0.5 mg/kg, buprenorphine 0.1 mg/kg), morphine 10 mg/kg on D15) |
| --- | --- | --- | --- | --- |
| CN1CC[C@]23c4c5ccc(O)c4O[C@H]2[C@@H](O)C=C[C@H]3[C@H]1C5 [morphine] | show behavioral sensitization |  |  |  |
| CCN1CCCC1CNC(=O)c1cc(S(=O)(=O)CC)c(N)cc1OC (stereo not shown) [amisulpride] |  | locomotor hyperactivity is observed | ≥ 10 | does not make it possible to reduce this behavioral sensitization |
